In patent US7671077B2, “Neuroprotective small organic molecules, compositions and uses related thereto” (priority 2004, dated 2010):
Entries after “also recorded” stand apart in the source; their conditions may differ.

Experiments:
[1] = tested on: midbrain dopaminergic neurons; experiment: Dopamine (DA) uptake assay in primary midbrain cultures; assay type: cell-based, rat; settings: for activity at 2.5 µM: compound concentration 2.5 μM; for activity at 1.25 µM: compound concentration 1.25 μM
Description: (§1) Primary midbrain cultures were prepared from rat embryo ventral mesencephalon as described previously by Lin et al (1994). In brief, rostral mesencephalic tegmentum of embryonic day 16 rat embryos was collected in DMEM/F12 (Hyclone SH30023.01) containing 2 mM glutamine on ice, The tissue was treated with 0.1% trypsin in Hanks' balanced salt solution (HBSS, Gibco 14175-095) for 15 min at 37° C. and dissociated mechanically by mild trituration with a fire-polished glass pipet in growth medium plus 2% heat-inactivated fetal bovine serum (FBS). The growth medium consisted of equal volumes of Dulbecco's minimal essential medium DMEM (Gibco 12100-046) and HAM's F12 nutrient mixture (Gibco 21700-075) supplemented with 33 mM glucose, 13 mM sodium bicarbonate, 5 mM HEPES, 2 mM glutamine, 25 μg/ml insulin, 100 μg/ml transferrin, 60 μM putrescine, 20 nM progesterone, 30 nM sodium selenite, 5 U/ml penicillin G and 5 μg/ml streptomycin. 24-well tissue culture plate was coated by adding 15 μg/ml poly-1-ornithine hydrobromide solution at 0.5 ml/well, incubated at room temperature for 1 hr. The coating solution was removed and the well washed 3 times with distilled water and one wash with HBSS. The dissociated cells were plated onto polyornithine-coated wells at 250,000-350,000 trypan blue-excluding viable cells per well in 500 μl of above medium containing 1% FBS. After 3 h when most of the cells had adhered to the bottom of the well, the medium was replaced with 500 μl of fresh medium without FBS. A serial dilution of the sample to be assayed for trophic activity was added to each well in duplicate at the time of medium change or within 24 h thereafter. Unless otherwise stated, cultures were incubated at 37° C. without any further medium change up to 7 days. Primary hindbrain cultures were prepared as described for the midbrain cultures except that the rostral raphe region (instead of the rostral mesencephalon) was dissected and trypsinized for 20 (instead of 15) min.
[^3H]DA uptake was measured in cultures at day 7, and all the solutions were maintained at 37° C. The growth medium was removed, and the cultures were rinsed twice with 0.25 ml of uptake buffer, which consists of HBSS (Gibco 11201-092) supplemented with 28 mM glucose, 15 mM HEPES, 1 mM ascorbic acid (an antioxidant), and […] pargyline (a monoamine oxidase inhibitor). The cultures were then incubated with 0.25 ml of fresh uptake buffer containing 50 nM [^3H]DA (NEN/DuPont) for 20 min at 37° C. [^3H]DA uptake was stopped by removing the incubation mixture, and cells were then washed twice with 0.5 ml of the uptake buffer at room temperature. To release [^3H]DA from the cells, the cultures were lysed with 0.2 ml of 0.1 N NaOH for 1 h at room temperature, the lysate was then added to 1 ml of Microscint-20 (Packard 6013621), and counted for radioactivity in a microplate scintillation counter (Packard TopCount, NXT). Background values were obtained by adding to the uptake buffer 0.5 mM GBR-12909, a specific inhibitor of the high-affinity uptake pump of the dopaminergic neurons, and were usually <5% of the ^3H uptake in untreated control cultures. Forskolin (Fk, 25 μM) was employed as a positive control.

TH-positive neurons = experiment: TH immunostaining and count of TH-positive neurons in midbrain cultures; assay type: cell-based, rat
Description: (§2) Primary midbrain cultures were prepared from rat embryo ventral mesencephalon as described previously by Lin et al (1994). In brief, rostral mesencephalic tegmentum of embryonic day 16 rat embryos was collected in DMEM/F12 (Hyclone SH30023.01) containing 2 mM glutamine on ice, The tissue was treated with 0.1% trypsin in Hanks' balanced salt solution (HBSS, Gibco 14175-095) for 15 min at 37° C. and dissociated mechanically by mild trituration with a fire-polished glass pipet in growth medium plus 2% heat-inactivated fetal bovine serum (FBS). […]
(§3) The primary antibodies were: anti-TH monoclonal (1:400, Boehringer-Mannheim); anti-GFAP polyclonal (1:200, DAKO); anti-NSE polyclonal (1:2000, Polysciences Inc.); anti-tryptophan hydroxylase polyclonal (TPH) (1:500, Eugene Tech) and anti-islet-1 monoclonal (1:100, Developmental Studies Hybridoma Bank). […] Process-bearing TH-positive cells were counted at 100× magnification in consecutive fields covering the whole 16-mm-diameter culture well. GFAP-positive cells were counted in half the culture well. NSE-positive cells were counted in 3 photographed fields.

NSE-positive cells = experiment: NSE immunostaining, total neuron count in midbrain cultures; assay type: cell-based, rat; settings: 2.5 μM; DIV 0, 5 or 7; versus untreated
Description: as §2, §3

GFAP-positive cells = experiment: GFAP immunostaining, astrocyte count in midbrain cultures; assay type: cell-based, rat; settings: midbrain culture, DIV 7
Description: as §2, §3

GABA-containing neurons = experiment: GABA uptake assay in midbrain cultures; assay type: cell-based, rat; settings: midbrain culture, DIV 8, concentration range that increased DA uptake
Description: as §1, with “After 3 h when most of the cells had adhered to the bottom of the well, the medium was replaced with 500 μl of fresh medium without FBS. A serial dilution of the sample to be assayed for trophic activity was added to each well in duplicate at the time of medium change or within 24 h thereafter. Unless otherwise stated, cultures were incubated at 37° C. without any further medium change up to 7 days. Primary hindbrain cultures were prepared as described for the midbrain cultures except that the rostral raphe region (instead of the rostral mesencephalon) was dissected and trypsinized for 20 (instead of 15) min.” left out

serotonergic neurons = experiment: Serotonin (5-HT) uptake assay in midbrain cultures; assay type: cell-based, rat; settings: midbrain culture, DIV 8, concentration range that increased DA uptake
Description: as §1, with “After 3 h when most of the cells had adhered to the bottom of the well, the medium was replaced with 500 μl of fresh medium without FBS. A serial dilution of the sample to be assayed for trophic activity was added to each well in duplicate at the time of medium change or within 24 h thereafter. Unless otherwise stated, cultures were incubated at 37° C. without any further medium change up to 7 days. Primary hindbrain cultures were prepared as described for the midbrain cultures except that the rostral raphe region (instead of the rostral mesencephalon) was dissected and trypsinized for 20 (instead of 15) min.” left out

islet-1^+ motoneurons = experiment: islet-1 immunostaining, motoneuron count in midbrain cultures; assay type: cell-based, rat; settings: 2.5 μM; DIV 1, 2 and 3
Description: as §2, §3

TPH^+ cells = experiment: TPH immunostaining in primary hindbrain cultures; assay type: cell-based, rat; settings: hindbrain culture, DIV 13
[2] = tested on: serotonergic neurons of hindbrain culture; experiment: Serotonin (5-HT) uptake assay in primary hindbrain cultures; assay type: cell-based, rat
TH^+ cells = experiment: Staining for apoptotic DA neurons (TH / Hoechst 33258); assay type: cell-based, rat; settings: 2.5 μM added at plating; DIV 13
Description: as §2
To measure the percent of DA neurons undergoing apoptosis after different treatments, DIV-13 cultures (which were medium changed twice on DIV 5 and 9) were first stained with an anti-TH antibody and with FITC-conjugated goat anti-mouse secondary antibody (1:200, Jackson Lab) for 1 h at room temperature to label DA neurons. […] Cells were viewed under an inverted fluorescence microscope (Olympus) equipped with appropriate filters. Healthy and apoptotic TH^+ cells TH^+ cell numbers were counted in the entire area of each well by an observer who is blinded to the treatment.

TH^+ neurons = experiment: MPP^+ induced neurotoxicity in midbrain cultures; assay type: cell-based, rat; settings: 2 μM MPP^+ for 36 h; 2.5 μM compound; control cultures lost 48%
Description: FIG. 34 depicts mechanism of compound A effect in midbrain cultures. 2.5 μM compound A was added at the time of plating. (A) Compound A reduces the rate of apoptosis of TH-positive cells. *p<0.05 versus Con, Student's t test. (B) Compound A protects TH-positive cells from MPP^+ induced neurotoxicity. Cultures at DIV 4 were treated with 2 μM MPP^+ (open bars) for 36 hrs, and processed for TH staining. *p<0.05 versus corresponding cultures not treated with MPP^+ (solid bars). #p<0.05 versus corresponding cultures without Compound A, Student's t test. Data represent averages (n=3) with SD shown in error bars.
Primary midbrain cultures were prepared from rat embryo ventral mesencephalon as described previously by Lin et al (1994). […]
as §3, with “fields. […]” for “fields.”

[3] = tested on: midbrain dopaminergic neurons; settings: Lin et al. 1993, 1994; cited from earlier work
[4] = Rattus norvegicus, Neuron, midbrain culture, read-out: DA uptake % of control

O=C(/C=C/c1ccccc1Cl)Nc1ccc(S(=O)(=O)Nc2nccs2)cc1 [Compound A]
DA uptake on conjoint treatment with GDNF ([1]; 2.5 μM compound A added to a maximally effective concentration of GDNF): additive effect; also recorded: increased DA uptake above that reached by either GDNF or compound A alone; also recorded: at least as potent as that of forskolin | activity at 2.5 µM [1, 4]: 240% | Emax ([1]; Rattus norvegicus, Neuron, DIV 6, varied between different experiments, read-out: maximal stimulation of DA uptake): 180 to 280% | concentration of maximal effect on DA uptake ([1]; dose-dependent effect, FIG. 32A, 7 DIV): around 2.5 μM | concentration at which the compound was toxic and decreased DA uptake ([1]; midbrain culture): above 10 μM | stimulation of DA uptake (in words) ([1]; midbrain culture, 7 DIV): stimulates dopamine (DA) uptake in a dose-dependent manner | number of TH positive neurons (dopaminergic neuron survival) (TH-positive neurons; 2.5-5 μM added once at the time of plating, day 7 or day 12): promotes survival of TH^+ neurons; also recorded: about twice as many DA neurons | tyrosine hydroxylase (TH) immunoreactivity (TH-positive neurons; mesencephalic cultures): upregulated | NSE-positive cell numbers (NSE-positive cells): does not increase total number of NSE^+ cells; also recorded: indistinguishable from the non-treated control wells | GFAP-positive cell numbers (GFAP-positive cells): does not affect GFAP^+ cell number; also recorded: not affected | GABA uptake (GABA-containing neurons): does not lead to an increase in GABA or 5-HT uptake; also recorded: Neither GABA (FIG. 33C) nor serotonin (FIG. 33D) uptake was significantly affected | GABA uptake (GABA-containing neurons; listed as CUR-162590): little, if any, effect | serotonin (5-HT) uptake (serotonergic neurons): does not lead to an increase in GABA or 5-HT uptake; also recorded: Neither GABA (FIG. 33C) nor serotonin (FIG. 33D) uptake was significantly affected | serotonin (5-HT) uptake (serotonergic neurons; listed as CUR-162590): little, if any, effect | number of islet-1^+ motoneurons (islet-1^+ motoneurons): 115-150 % of control | survival / number of TPH^+ neurons (TPH^+ cells): does not change either the number of TPH^+ cells nor the amount of serotonin uptake in hindbrain cultures; also recorded: did not promote the survival of neurons immunoreactive for the key serotonin-synthesizing enzyme TPH | cytotoxicity on the hindbrain culture (inhibition of serotonin uptake) ([2]; 10 μM): showed cytotoxicity on the hindbrain culture | serotonin uptake in hindbrain culture ([2]; DIV 8, concentrations necessary for increasing dopamine uptake in midbrain culture): does not change either the number of TPH^+ cells nor the amount of serotonin uptake in hindbrain cultures; also recorded: nor did it increase serotonin uptake in the hindbrain culture | reduction of the rate of apoptosis of TH^+ cells (TH^+ cells): about 50% | loss of TH^+ neurons after MPP^+ (TH^+ neurons): 20%

Cc1nc(NS(=O)(=O)c2ccc(NC(=O)/C=C/c3ccccc3Cl)cc2)sc1C(=O)O [Y′′′]
activity at 10 µM ([1]; Rattus norvegicus, Neuron, compound concentration 10 μM, midbrain culture, read-out: DA uptake % of control): 160%

O=C(/C=C/c1cccc(Cl)c1Cl)Nc1ccc(S(=O)(=O)Nc2nccs2)cc1 [Y′′′′]
activity at 0.6 µM ([1]; Rattus norvegicus, Neuron, compound concentration 0.6 μM, midbrain culture, read-out: DA uptake % of control): 180%

COc1ccccc1/C=C/C(=O)Nc1ccc(S(=O)(=O)Nc2nc[nH]n2)cc1 [Y″]
activity at 2.5 µM [1, 4]: 180%

O=C(/C=C/c1ccccc1F)Nc1ccc(S(=O)(=O)Nc2ccccn2)cc1 [Z′′′]
activity at 2.5 µM [1, 4]: 140%

COc1ccc(/C=C/C(=O)Nc2ccc(S(=O)(=O)Nc3nccs3)cc2)c(OC)c1 [Z′′′′]
activity at 1.25 µM [1, 4]: 170%

O=C(/C=C/c1ccccc1I)Nc1ccc(S(=O)(=O)Nc2nccs2)cc1 [Z″]
activity at 1.25 µM [1, 4]: 300%

B1: GDNF: glial cell line-derived neurotrophic factor (protein, UniProt P39905 78-211, looked up)
Glial cell line-derived …: SPDKQMAVLPRRERNRQAAAANPENSRGKGRRGQRGKNRGCVLTAIHLNVTDLGLGYETKEELIFRYCSGSCDAAETTYDKILKNLSRNRRLVSDKVGQACCRPIAFDDDLSFLDDNLVYHILRKHSAKRCGCI
concentration at which the effect on DA uptake plateaus [3]: around 1 ng/ml
